From PubChem BioAssay AID2765 (Broad Institute, 2010)
pEC50: −log10 of the molar value. Active and inactive are the calls of the source.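 How the source made its calls: active means half-maximal concentration for the rise in caspase light signal at or below ten times the top tested dose; inconclusive means flat fit between 30% and 70% activity, or unreliable curve fit; inactive means the rest.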

Tested on: MEF A1-2A-BIM cells, caspase 3/7 luminescence, 3 h
Test: caspase activation in A1-2A-BIM MEF cells, dose response, A1 inhibitor project, cell-based, luminescence, retest (AID 2765)

Row | Structure (SMILES) | EC50 | pEC50
1 | OC(CNCC1COc2ccccc2O1)COc1ccc(Cl)cc1 (centres undefined) | > 35 µM (inactive) | –
2 | Cc1cccc(C)c1OCc1nnc(SCC(=O)Nc2nccs2)n1-c1ccccc1 | > 35 µM (inactive) | –
3 | COC(=O)C(CO)Nc1ncnc2onc(-c3ccc(F)cc3)c12 (centres undefined) | > 35 µM (inactive) | –
4 | O=C(c1ccccc1)N1CCN(S(=O)(=O)c2ccccc2)CC1 | > 35 µM (inactive) | –
5 | CCOC(=O)c1sc(NC(=O)CSc2nc(C)cc(C)c2C#N)c(C#N)c1C | > 35 µM (inactive) | –
6 | CCc1ccc(C2C3=C(CC(C)(C)CC3=O)Nc3c2c(=O)[nH]c2nc(C)nn32)cc1 (centres undefined) | > 35 µM (inactive) | –
7 | CCCOc1ccc(N2C(=O)C3ON(c4ccccc4)C(CCC)C3C2=O)cc1 (centres undefined) | > 35 µM (inactive) | –
8 | CC(C)=C1C2C=CC1C1C(=O)N(c3ccc4c(c3)OCO4)C(=O)C21 (centres undefined) | > 35 µM (inactive) | –
9 | CCN(CC)C1CCN(C(=O)c2ccc(OC3CCN(CCc4ccccc4)CC3)cc2)C1 (centres undefined) | > 35 µM (inactive) | –
10 | O=C(NCCOC(=O)c1ccc(Cl)c(S(=O)(=O)N2CCCCC2)c1)c1ccncc1 | > 35 µM (inactive) | –
11 | CCOC(=O)CC1=C(C(=O)OCC)C2(C(=O)Nc3ccccc32)C(C#N)=C(N)O1 (centres undefined) | > 35 µM (inactive) | –
12 | N#C/C(=C\c1ccc(N2CCOCC2)o1)c1ccccc1 | > 35 µM (inactive) | –
13 | C=C1C(=O)O[C@@H]2C[C@@H](C)[C@@H]3C=CC(=O)[C@@]3(C)[C@@H](OC(C)=O)[C@H]12 | > 35 µM (inactive) | –
14 | CCCCNC(=S)N/N=C/c1ccc(OCC(=O)Nc2c(C)cc(C)cc2C)c(OC)c1 | > 35 µM (inactive) | –
15 | Cc1ccc(-n2nc3c(=O)n(C(C)C(=O)NCc4ccccc4Cl)nc(C)c3c2C)cc1 (centres undefined) | > 35 µM (inactive) | –
16 | O=C(/C=C/c1cccc(Cl)c1)c1ccc([N+](=O)[O-])o1 | > 35 µM (inactive) | –
17 | CC(C)C(OC(=O)c1cc2c(s1)CCCCC2)C(=O)NC(N)=O (centres undefined) | > 35 µM (inactive) | –
18 | COc1ccc(-c2ccc3c(c2)S(=O)(=O)c2cccc(C(=O)NCc4cccc(OC(F)(F)F)c4)c2C3=O)cc1OC | – | 4.69
19 | Nc1c(C(=O)Nc2ccc(S(=O)(=O)N3CCCC3)cc2)sc2nc3ccc(OC(F)(F)F)cc3cc12 | – | 5.06
20 | Cc1ccc(NC(=O)c2ccc(Cl)c(N3C(=O)C=CC3=O)c2)cc1 | > 35 µM (inactive) | –
21 | CN(c1ccccc1)c1ccc(/C=C/[N+](=O)[O-])cc1 | – | 4.90
22 | COc1ccc(C(=O)/C=C/C(=O)N(CC(=O)NC2CCCCC2)Cc2cccs2)c(O)c1 | > 35 µM (inactive) | –
23 | COc1ccc(C(CNC(=O)c2cc(S(=O)(=O)NCc3ccco3)ccc2C)N(C)C)cc1 (centres undefined) | > 35 µM (inactive) | –

Row | Structure (SMILES) | EC50 | pEC50
24 | Cc1ccc(S(=O)(=O)N(C)Cc2ccc(C(=O)N/N=C/c3ccc(OC(F)F)cc3)cc2)cc1 | > 35 µM (inactive) | –
25 | CN(Cc1ccc(F)cc1)C(=O)CNC(=O)C1CCCCC1 | > 35 µM (inactive) | –
26 | Cn1c2ccccc2c2cnn(CC(=O)NCCCN3CCN(c4ccccc4F)CC3)c(=O)c21 | > 35 µM (inactive) | –
27 | CCS(=O)(=O)c1ncc(Cl)c(C(=O)Nc2ccc(S(=O)(=O)N3CCCC(C)C3)cc2)n1 (centres undefined) | > 35 µM (inactive) | –
28 | Cc1ccc2nc(N(CCCN(C)C)C(=O)c3ccc(S(=O)(=O)N4CCc5ccccc5C4)cc3)sc2c1 | > 35 µM (inactive) | –
29 | CC1(C)C[C@H](O)[C@]2(CO)[C@H](O)C[C@]3(C)C(=CCC4[C@@]5(C)CC[C@H](O)C(C)(C)C5CC[C@]43C)[C@@H]2C1 (some centres undefined) | > 35 µM (inactive) | –
30 | O=C(NC[C@H]1CCCO1)c1cccc2c1C(=O)c1ccc(-c3ccc(F)cc3OCc3ccccc3)cc1S2(=O)=O | > 35 µM (inactive) | –
31 | CC(=O)Nc1ccc(SC[C@H](Cc2ccccc2)N2CC[C@@H](C(C)(C)C)CCC2=O)cc1 | > 35 µM (inactive) | –
32 | O=C(/C=C/c1ccc(F)cc1)NC(=S)Nc1ccccc1C(=O)NC1CCCCC1 | > 35 µM (inactive) | –
33 | O=C(/C=C/c1ccccc1)Nc1cccnc1 | > 35 µM (inactive) | –
34 | CN(C)C(=O)c1ccc(OCC(F)(F)F)nc1 | > 35 µM (inactive) | –
35 | COc1cc(/C=C(/C#N)c2nc3ccccc3[nH]2)ccc1OCC(=O)Nc1ccccc1C(C)C | – | 4.84
36 | NC(=NCCCCCCN=C(N)/N=C(\N)Nc1ccc(Cl)cc1)/N=C(\N)Nc1ccc(Cl)cc1 | > 35 µM (inactive) | –
37 | Cc1cc(C)n(CCC(=O)N/N=C/c2ccc(Cl)c([N+](=O)[O-])c2)n1 | > 35 µM (inactive) | –
38 | COc1ccc(N2CCN(C3CCCN(Cc4cccc(C(C)=O)c4)C3)CC2)cc1 (centres undefined) | > 35 µM (inactive) | –
39 | CCc1cccc(CC)c1NC(=O)C1CSC2(C)CCC(=O)N12 (centres undefined) | > 35 µM (inactive) | –
40 | O=C(Nc1cccc([N+](=O)[O-])c1)Nc1ccc2c(c1)CCC2 | > 35 µM (inactive) | –
41 | CC(=O)Oc1ccccc1C(=O)Oc1ccccc1C(=O)O | > 35 µM (inactive) | –
42 | Cc1ccc(-c2nc(NC(=O)c3nn(C)cc3[N+](=O)[O-])sc2C)cc1C | – | 5.20
43 | COc1cc(NC(=O)c2cccs2)ccc1NC(=O)c1cc2ccccc2o1 | > 35 µM (inactive) | –
44 | CCCNC(=O)c1ccc2c(=O)c(O)c(-c3ccsc3)[nH]c2c1 | > 35 µM (inactive) | –
45 | CC(=O)c1cc(C#N)c(SCC(=O)Nc2nccs2)nc1C | > 35 µM (inactive) | –
46 | CC(Sc1nc(-c2ccccc2)cc(C(F)(F)F)n1)C(=O)N1CCCCC1 (centres undefined) | > 35 µM (inactive) | –

Row | Structure (SMILES) | EC50 | pEC50
47 | CCOC(=O)c1c(NC(=O)C2C3C=CC(C3)C2C(=O)O)sc2c1CCCC2 (centres undefined) | > 35 µM (inactive) | –
48 | CN(C)C/C=C(\c1ccc(Br)cc1)c1cccnc1 | > 35 µM (inactive) | –
49 | O=C(NCCO)C(=O)Nc1cc2c3c(c1)CCN3C(=O)CC2 | > 35 µM (inactive) | –
50 | CN1CCc2c(sc3c2C(=O)NC(c2ccccn2)N3)C1 (centres undefined) | > 35 µM (inactive) | –
51 | Cc1ccc(C(=O)Nc2ccc(N3CCOCC3)nc2N2CCOCC2)cc1 | > 35 µM (inactive) | –
52 | COc1ccc2[nH]c(=O)c(CN(CC3CCCO3)C(=O)Nc3ccccc3)cc2c1 (centres undefined) | > 35 µM (inactive) | –
53 | O=C(CCS(=O)(=O)c1ccccc1)N(CCCN1CCOCC1)c1nc2ccc(F)cc2s1 | > 35 µM (inactive) | –
54 | COc1cccc(/C=N/NC(=O)c2cc3cc([N+](=O)[O-])ccc3s2)c1O | > 35 µM (inactive) | –
55 | O=C(CN1C(=O)NC2(CCCCCC2)C1=O)Nc1cccc(F)c1 | > 35 µM (inactive) | –
56 | COc1ccc(OC)c(NC(=O)CSc2nnc(CNC(=O)COc3ccc(Cl)cc3)o2)c1 | > 35 µM (inactive) | –
57 | CCC(NC(=O)c1cccc(Cn2cc([N+](=O)[O-])cn2)c1)c1ccc(C(C)C)cc1 (centres undefined) | > 35 µM (inactive) | –
58 | Cc1cc(=O)oc2c3c(cc(OCC(=O)N[C@@H](CC(C)C)C(=O)O)c12)OC(C)(C)CC3 | > 35 µM (inactive) | –
59 | CC(C)(C)CC(=O)Nc1nnc(SCC(=O)NC2CCCCC2)s1 | > 35 µM (inactive) | –
60 | C=C1C(O)[C@@H]2O[C@]3(CC[C@H](/C=C/C(C)[C@@H]4CC(C)=CC5(O[C@H](C[C@@](C)(O)CO)CCC5O)O4)O3)CC[C@H]2O[C@@H]1C(O)CC(C)[C@H]1OC2(CCCCO2)CCC1C (some centres undefined) | > 35 µM (inactive) | –
61 | Cc1cc(N2C(=O)C=CC2=O)c([N+](=O)[O-])cc1C | > 35 µM (inactive) | –
62 | Cc1ccc(SCCNC(=S)Nc2cc(C)ccc2C)cc1 | > 35 µM (inactive) | –
63 | O=C(NC1CCCC1)c1cccc2c1C(=O)c1ccc(/C=C/c3ccccc3)cc1S2(=O)=O | – | 4.97
64 | COc1ccc(NC(=O)CSc2nc3ccc(Nc4nc(N5CCOCC5)nc(N5CCOCC5)n4)cc3s2)cc1 | > 35 µM (inactive) | –
65 | O=C(NC1CCCc2ccccc21)c1ccccc1OC(F)F (centres undefined) | > 35 µM (inactive) | –
66 | O=C(/C=C/c1ccc(Cl)c(Cl)c1)NC1=NCCS1 | > 35 µM (inactive) | –
67 | COc1ccccc1NS(=O)(=O)c1ccc(C)c(C(=O)N2CCN(c3ccc(O)cc3)CC2)c1 | > 35 µM (inactive) | –
68 | CCOc1ccc(N2C(=O)CN=C2Nc2ccccc2F)cc1 | > 35 µM (inactive) | –
69 | COc1ccc(C(=O)Nc2ccc(NC(C)=O)cc2)cc1S(=O)(=O)N1CCCCC1C (centres undefined) | > 35 µM (inactive) | –

Row | Structure (SMILES) | EC50 | pEC50
70 | CC(C)Oc1ccc(C(=O)OCC(=O)NC2CCCCCC2)cc1 | > 35 µM (inactive) | –
71 | N#Cc1cc(C(=O)c2cc(Br)ccc2O)cn(C2CC2)c1=O | > 35 µM (inactive) | –
72 | CCn1c(C)[n+](CCOC(C)=O)c2cc(Cl)c(Cl)cc21 | > 35 µM (inactive) | –
73 | Cc1c(Cl)cccc1NC(=O)CN1CCN(CCN=CC2=C(O)CC(c3ccccc3)CC2=O)CC1 (centres undefined) | > 35 µM (inactive) | –
74 | COc1ccc(S(=O)(=O)N2CC(O)CC2C(=O)OCc2nc3sc(C)c(C)c3c(=O)[nH]2)cc1 (centres undefined) | > 35 µM (inactive) | –
75 | Cc1cc(=O)n2nc(N3CCCC(C(=O)NCCc4ccc(Cl)cc4)C3)sc2n1 (centres undefined) | > 35 µM (inactive) | –
76 | C[C@H](CO)N1C[C@H](C)[C@H](CN(C)Cc2ccc(-c3ccccc3)cc2)Oc2ccc(NS(=O)(=O)c3ccccc3)cc2CC1=O | > 35 µM (inactive) | –
77 | O=C(CSc1cccc[n+]1[O-])NC1CCCCC1 | > 35 µM (inactive) | –
78 | COCCNC(=O)C(c1ccco1)N(C(=O)Cn1nnc2ccccc21)c1ccc(C)cc1C (centres undefined) | > 35 µM (inactive) | –
79 | CONC(=O)c1cc(OCC(F)(F)F)ccc1OCC(F)(F)F | > 35 µM (inactive) | –
80 | CC(C)NCC(O)c1ccc(NS(C)(=O)=O)cc1 (centres undefined) | > 35 µM (inactive) | –
81 | Cc1ccc(C)c(NC(=O)CN(C)C(=O)c2ccc(-c3cccc(C(F)(F)F)c3)o2)c1 | > 35 µM (inactive) | –
82 | Cc1cccc(Nc2nc(N)c([N+](=O)[O-])c(N3CCCC(C)C3)n2)c1 (centres undefined) | > 35 µM (inactive) | –
83 | CSc1ccc(CCNC(=O)CCc2nnc3ccc(NCCCN4CCCC4=O)nn23)cc1 | > 35 µM (inactive) | –
84 | CC(=O)OC(C)(C)/C=C/C(=O)[C@](C)(O)C1[C@H](O)C[C@@]2(C)C3CC=C4C(C[C@H](O)C(=O)C4(C)C)[C@]3(C)C(=O)C[C@]12C (some centres undefined) | > 35 µM (inactive) | –
85 | O=C(O)CN1C(=O)C2C3CC(C2C1=O)C1C(c2ccccc2)c2sc(=O)[nH]c2SC31 (centres undefined) | > 35 µM (inactive) | –
86 | O=C(COc1ccccc1[N+](=O)[O-])Nc1ccc(NC(=O)c2cc3ccccc3o2)cc1 | – | 4.56
87 | O=C(/C=C/c1ccc(Cl)cc1)c1ccc([N+](=O)[O-])o1 | > 35 µM (inactive) | –
88 | COc1ccc(S(=O)(=O)Nc2c(NC3CCCCC3)c3ccccc3oc2=O)cc1OC | > 35 µM (inactive) | –
89 | CCc1ccccc1NC(=O)CN(C)C(=O)Cn1ncc(Cl)c(Cl)c1=O | > 35 µM (inactive) | –
